Experimental data published in publication PMC9097292, “Activity of Estrogen Receptor β Agonists in Therapy-Resistant Estrogen Receptor-Positive Breast Cancer” (Frontiers in Oncology, 2022).

Legend:
[1] = molecular target: T1, ERα (estrogen receptor α) (Homo sapiens, UniProt P03372); experiment: ERE-luciferase reporter assay in HEK293T cells transfected with Flag-ERα (weaker activation than ERβ); assay type: cell-based
T1 construct: gene ESR1; c-Flag ERα (OHu26586D; pcDNA3.1+/C-(K) DYK)
T1 sequence (P03372 1-595): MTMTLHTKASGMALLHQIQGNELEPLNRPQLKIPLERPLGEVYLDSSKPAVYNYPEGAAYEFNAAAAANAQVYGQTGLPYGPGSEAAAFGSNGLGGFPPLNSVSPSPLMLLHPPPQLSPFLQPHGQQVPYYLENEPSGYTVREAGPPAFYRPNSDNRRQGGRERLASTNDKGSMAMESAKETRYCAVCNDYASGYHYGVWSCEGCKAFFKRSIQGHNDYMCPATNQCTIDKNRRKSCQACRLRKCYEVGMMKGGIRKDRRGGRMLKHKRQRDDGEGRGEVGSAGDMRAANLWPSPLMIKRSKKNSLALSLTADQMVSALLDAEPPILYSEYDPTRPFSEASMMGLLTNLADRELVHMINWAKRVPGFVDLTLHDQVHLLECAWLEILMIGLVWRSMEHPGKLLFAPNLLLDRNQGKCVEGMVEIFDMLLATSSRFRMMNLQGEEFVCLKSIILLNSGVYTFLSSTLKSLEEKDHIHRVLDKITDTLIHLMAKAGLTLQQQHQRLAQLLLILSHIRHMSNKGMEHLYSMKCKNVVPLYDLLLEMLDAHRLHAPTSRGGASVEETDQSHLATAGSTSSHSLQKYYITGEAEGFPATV

[2] = molecular target: T2, ERβ (estrogen receptor β) (Homo sapiens, UniProt Q92731); experiment: ERE-luciferase reporter assay in HEK293T cells transfected with Flag-ERβ (agonist); assay type: cell-based
T2 construct: gene ESR2; c-Flag ERβ (OHu25562D; pcDNA3.1+/C-(K) DYK)
T2 sequence (Q92731 whole entry): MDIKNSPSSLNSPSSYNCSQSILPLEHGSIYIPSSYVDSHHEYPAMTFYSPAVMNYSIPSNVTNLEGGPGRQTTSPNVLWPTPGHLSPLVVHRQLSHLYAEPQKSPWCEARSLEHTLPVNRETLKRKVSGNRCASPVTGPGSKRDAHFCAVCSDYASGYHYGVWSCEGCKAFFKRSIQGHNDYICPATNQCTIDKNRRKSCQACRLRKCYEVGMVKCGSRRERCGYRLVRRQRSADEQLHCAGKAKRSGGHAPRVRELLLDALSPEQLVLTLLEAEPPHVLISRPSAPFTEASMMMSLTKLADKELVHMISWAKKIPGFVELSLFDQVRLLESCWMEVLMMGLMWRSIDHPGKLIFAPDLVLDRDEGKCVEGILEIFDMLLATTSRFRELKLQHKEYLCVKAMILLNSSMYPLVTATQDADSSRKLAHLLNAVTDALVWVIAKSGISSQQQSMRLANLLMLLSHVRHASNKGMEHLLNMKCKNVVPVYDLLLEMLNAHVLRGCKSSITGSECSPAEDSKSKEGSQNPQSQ

Row | Compound | fold induction at 0.01 µM ([1]; HEK-293T) | fold induction at 0.01 µM ([2]; HEK-293T, read-out: ERE-luciferase reporter assay in HEK293T cells transfected with Flag-ERβ (agonis)) | ERE-luciferase reporter assay in HEK293T cells transfected with Flag-ERα (weaker) ([1]; hek293t cells, 0.03 µM) | ERE-luciferase reporter assay in HEK293T cells transfected with Flag-ERβ (agonis) ([2]; hek293t cells, 0.03 µM)
1 | Oc1ccc([C@@H]2Oc3ccc(O)cc3[C@@H]3CCC[C@@H]32)cc1 [LY500307] | 2.1 | 84 |  | 
2 | OSU-ERb-12 |  |  | ~ 4 fold activation at 30 nmol/l | ~ 40 fold activation at 30 nmol/l
